In patent US10125453B2, “Antimicrobial textile products and method of obtaining thereof” (YEDITEPE ÜNIVERSITESI, priority 2013, dated 2018):

How the values were obtained:
Assay type in all cases: cell-based
Set-up in all cases: key: +: inhibition zones against the tested microorganisms were observed; −: inhibition zones were not detected
[1] = tested on: Escherichia coli; assay: standard NCCLS disc diffusion method, Escherichia coli; conditions: TSA, 36±1° C., 24 hours
Protocol: (§1) Antimicrobial properties of the textile products loaded with impregnation solution were examined by using standard NCCLS disc diffusion method (Lalitha, 2005). Briefly, the 100 μl solution including 10^8 cfu/ml bacteria, 10^6 cfu/ml yeast, and 10^4 spor/ml fungus was prepared with new cultures and inoculated with spreading method on Trypticase soy agar (TSA), Sabouraud Dextrose Agar (SDA), and Potato Dextrose Agar (PDA), respectively. The sections of approximately 1×1 cm, which were cut out from the textile products loaded with the impregnation solution comprising the stated concentrations of triclosan, chlorhexidine and disodium octaborate pentahydrate, were placed on inoculated petri dishes. Empty textile products which were not loaded with impregnation solution were used as negative control. […] The petri dishes, which were inoculated and on which textile products were placed, were kept at 36±1° C. for bacteria for 24 hours and 48 hours for yeasts and at 25±1° C. for fungi for 72 hours. Antimicrobial activity against microorganisms tested in standard disc diffusion method was assessed by measuring the inhibition zone. All tests were repeated at least twice.

[2] = tested on: MRSA; assay: standard NCCLS disc diffusion method, MRSA; conditions: TSA, 36±1° C., 24 hours
Protocol: as §1

[3] = tested on: Staphylococcus aureus; assay: standard NCCLS disc diffusion method, Staphylococcus aureus; conditions: 10 μg/disc, TSA, 36±1° C., 24 hours
Protocol: as §1

[4] = tested on: Pseudomonas aeruginosa; assay: standard NCCLS disc diffusion method, Pseudomonas aeruginosa; conditions: TSA, 36±1° C., 24 hours
Protocol: as §1

[5] = tested on: Aspergillus spp.; assay: standard NCCLS disc diffusion method, Aspergillus spp.; conditions: 100 u/disc, PDA, 25±1° C., 72 hours
Protocol: (§2) Antimicrobial properties of the textile products loaded with impregnation solution were examined by using standard NCCLS disc diffusion method (Lalitha, 2005). Briefly, the 100 μl solution including 10^8 cfu/ml bacteria, 10^6 cfu/ml yeast, and 10^4 spor/ml fungus was prepared with new cultures and inoculated with spreading method on Trypticase soy agar (TSA), Sabouraud Dextrose Agar (SDA), and Potato Dextrose Agar (PDA), respectively. The sections of approximately 1×1 cm, which were cut out from the textile products loaded with the impregnation solution comprising the stated concentrations of triclosan, chlorhexidine and disodium octaborate pentahydrate, were placed on inoculated petri dishes. Empty textile products which were not loaded with impregnation solution were used as negative control. As positive control, Ofloxacin (5 μg/disc) was used for bacteria and Nystatin (100 u/disc) was used for yeasts and fungi. The petri dishes, which were inoculated and on which textile products were placed, were kept at 36±1° C. for bacteria for 24 hours and 48 hours for yeasts and at 25±1° C. for fungi for 72 hours. Antimicrobial activity against microorganisms tested in standard disc diffusion method was assessed by measuring the inhibition zone. All tests were repeated at least twice.

[6] = tested on: Penicillium spp.; assay: standard NCCLS disc diffusion method, Penicillium spp.; conditions: 100 u/disc, PDA, 25±1° C., 72 hours
Protocol: as §2

[7] = tested on: Candida spp.; assay: standard NCCLS disc diffusion method, Candida spp.; conditions: 100 u/disc, SDA, 36±1° C., 48 hours
Protocol: as §2

Measured: In vitro antimicrobial test result (inhibition zone), positive control

CC1COc2c(N3CCN(C)CC3)c(F)cc3c(=O)c(C(=O)O)cn1c23 (stereo not shown) [Ofloxacin]
+: [1] | [2] | [3] | [4]

C[C@@H]1[C@H](O)[C@@H](C)/C=C/C=C/CC/C=C/C=C/C=C/C=C/C(O[C@H]2O[C@H](C)[C@@H](O)[C@H](N)[C@@H]2O)CC2O[C@](O)(CC(O)C(O)CCC(O)CC(O)CC(O)CC(=O)O[C@H]1C)CC(O)C2C(=O)O (stereo partly shown) [Nystatin]
+: [5] | [6] | [7]
